Measured values reported in the NIST ThermoML archive (doi:10.1021/je400512u).

Test: xn = mol fraction of the nth substance listed
Settings: 101 kPa, Liquid; for viscosity: Concentric cylinders viscometry; for speed of sound: Pulse-echo method; for mass density: Vibrating tube method

CCCCCCCO [heptan-1-ol] + C1COCCO1
Settings | mass density, 298.15 K [kg/m3] | mass density, 303.15 K [kg/m3] | mass density, 308.15 K [kg/m3] | speed of sound, 298.15 K [m/s] | speed of sound, 303.15 K [m/s] | speed of sound, 308.15 K [m/s] | viscosity, 298.15 K [mPa·s] | viscosity, 303.15 K [mPa·s] | viscosity, 308.15 K [mPa·s]
x1 = 0.0505 | 1008.57 | 1003.12 | 997.647 | 1339.3 | 1317.9 | 1296.7 | 1.217 | 1.12 | 1.034
x1 = 0.1 | 991.286 | 985.996 | 980.695 | 1333.2 | 1312.3 | 1291.6 | 1.247 | 1.145 | 1.055
x1 = 0.1501 | 975.785 | 970.647 | 965.496 | 1328.6 | 1308.1 | 1287.8 | 1.296 | 1.188 | 1.093
x1 = 0.2 | 961.05 | 956.055 | 951.048 | 1324.7 | 1304.6 | 1284.7 | 1.344 | 1.229 | 1.129
x1 = 0.25 | 947.06 | 942.208 | 937.338 | 1321.5 | 1301.8 | 1282.2 | 1.415 | 1.291 | 1.183
x1 = 0.2997 | 934.312 | 929.584 | 924.84 | 1319 | 1299.7 | 1280.4 | 1.5 | 1.365 | 1.247
x1 = 0.3502 | 922.561 | 917.951 | 913.324 | 1317.4 | 1298.4 | 1279.4 | 1.605 | 1.455 | 1.324
x1 = 0.4001 | 911.608 | 907.108 | 902.591 | 1316 | 1297.2 | 1278.5 | 1.713 | 1.547 | 1.403
x1 = 0.4498 | 901.275 | 896.876 | 892.463 | 1315.2 | 1296.6 | 1278.2 | 1.834 | 1.653 | 1.497
x1 = 0.4998 | 891.612 | 887.314 | 882.999 | 1314.9 | 1296.6 | 1278.4 | 2 | 1.794 | 1.617
x1 = 0.55 | 882.643 | 878.474 | 874.248 | 1314.8 | 1296.7 | 1278.6 | 2.169 | 1.937 | 1.739
x1 = 0.6004 | 874.251 | 870.13 | 865.991 | 1315.2 | 1297.3 | 1279.4 | 2.365 | 2.104 | 1.881
x1 = 0.6501 | 866.177 | 862.139 | 858.083 | 1316 | 1298.3 | 1280.5 | 2.593 | 2.296 | 2.044
x1 = 0.7002 | 858.585 | 854.631 | 850.647 | 1316.9 | 1299.3 | 1281.7 | 2.861 | 2.521 | 2.234
x1 = 0.7493 | 851.217 | 847.338 | 843.436 | 1318.2 | 1300.7 | 1283.3 | 3.154 | 2.766 | 2.44
x1 = 0.7999 | 844.345 | 840.45 | 836.632 | 1318.9 | 1301.7 | 1284.4 | 3.524 | 3.073 | 2.696
x1 = 0.85 | 837.74 | 834.009 | 830.254 | 1321.5 | 1304.3 | 1287.2 | 3.943 | 3.419 | 2.985
x1 = 0.8998 | 831.478 | 827.706 | 824.01 | 1323.2 | 1306.1 | 1289 | 4.464 | 3.847 | 3.338
x1 = 0.9498 | 825.31 | 821.704 | 818.076 | 1325.4 | 1308.3 | 1291.4 | 5.075 | 4.346 | 3.747
x1 = 1 | 819.73 | 816.183 | 812.61 | 1328.3 | 1311.3 | 1294.5 | 5.869 | 4.989 | 4.27
